Laboratory results as given in patent US5863889A, “ICAM-1/LFA-1 short-chain peptides and method of using same” (The University of Kansas, priority 1996, dated 1999).
“Also recorded” adds a separate entry of the source. Like-named read-outs stand apart in the source and are kept apart here.

How the values were obtained:
LFA-1 (CD11a) = biological target: T1, LFA-1 (CD11a) (Homo sapiens, UniProt P20701); assay: Antibody binding assay (FACS): anti-LFA-1 mAb (mouse IgG anti-human CD11a) binding to Molt3 T-cells after peptide incubation; type: cell-based; conditions: for Fluorescence, % change from control of the medium fluorescence intensity: mAb CD11a, average ± standard error of runs
T1 construct: host or cells: Molt3 human T-cell leukemia line
T1 sequence (P20701 26-1170): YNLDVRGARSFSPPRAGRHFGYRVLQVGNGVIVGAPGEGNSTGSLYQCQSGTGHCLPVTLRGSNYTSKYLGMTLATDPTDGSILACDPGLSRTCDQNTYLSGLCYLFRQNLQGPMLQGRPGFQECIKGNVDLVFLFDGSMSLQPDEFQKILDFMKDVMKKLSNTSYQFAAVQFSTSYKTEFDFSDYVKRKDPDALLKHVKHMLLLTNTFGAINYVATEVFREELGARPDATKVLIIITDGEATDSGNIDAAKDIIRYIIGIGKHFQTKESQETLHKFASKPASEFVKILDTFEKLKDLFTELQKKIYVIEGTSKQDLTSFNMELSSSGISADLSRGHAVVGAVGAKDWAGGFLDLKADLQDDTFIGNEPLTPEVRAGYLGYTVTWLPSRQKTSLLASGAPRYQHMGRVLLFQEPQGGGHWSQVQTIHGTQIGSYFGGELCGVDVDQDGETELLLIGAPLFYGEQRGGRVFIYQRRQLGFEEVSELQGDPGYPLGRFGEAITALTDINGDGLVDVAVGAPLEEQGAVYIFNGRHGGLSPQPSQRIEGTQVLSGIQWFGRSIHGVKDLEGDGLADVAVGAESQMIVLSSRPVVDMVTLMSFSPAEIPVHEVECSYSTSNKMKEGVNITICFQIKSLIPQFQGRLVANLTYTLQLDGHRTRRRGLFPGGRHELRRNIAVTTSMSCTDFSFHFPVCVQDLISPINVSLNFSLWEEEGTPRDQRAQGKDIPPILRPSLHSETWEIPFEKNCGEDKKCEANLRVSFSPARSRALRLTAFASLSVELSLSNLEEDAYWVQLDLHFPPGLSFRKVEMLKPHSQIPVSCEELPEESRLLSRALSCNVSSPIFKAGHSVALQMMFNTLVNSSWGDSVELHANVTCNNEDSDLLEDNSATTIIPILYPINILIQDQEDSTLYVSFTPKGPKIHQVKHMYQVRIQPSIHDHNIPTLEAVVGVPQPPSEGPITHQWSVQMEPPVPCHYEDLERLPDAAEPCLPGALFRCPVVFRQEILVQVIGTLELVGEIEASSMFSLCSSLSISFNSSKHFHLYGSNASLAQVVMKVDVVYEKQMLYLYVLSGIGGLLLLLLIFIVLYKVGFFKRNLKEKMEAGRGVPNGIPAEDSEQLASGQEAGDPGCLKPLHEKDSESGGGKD
T1 sequence (P05107 23-769 partner): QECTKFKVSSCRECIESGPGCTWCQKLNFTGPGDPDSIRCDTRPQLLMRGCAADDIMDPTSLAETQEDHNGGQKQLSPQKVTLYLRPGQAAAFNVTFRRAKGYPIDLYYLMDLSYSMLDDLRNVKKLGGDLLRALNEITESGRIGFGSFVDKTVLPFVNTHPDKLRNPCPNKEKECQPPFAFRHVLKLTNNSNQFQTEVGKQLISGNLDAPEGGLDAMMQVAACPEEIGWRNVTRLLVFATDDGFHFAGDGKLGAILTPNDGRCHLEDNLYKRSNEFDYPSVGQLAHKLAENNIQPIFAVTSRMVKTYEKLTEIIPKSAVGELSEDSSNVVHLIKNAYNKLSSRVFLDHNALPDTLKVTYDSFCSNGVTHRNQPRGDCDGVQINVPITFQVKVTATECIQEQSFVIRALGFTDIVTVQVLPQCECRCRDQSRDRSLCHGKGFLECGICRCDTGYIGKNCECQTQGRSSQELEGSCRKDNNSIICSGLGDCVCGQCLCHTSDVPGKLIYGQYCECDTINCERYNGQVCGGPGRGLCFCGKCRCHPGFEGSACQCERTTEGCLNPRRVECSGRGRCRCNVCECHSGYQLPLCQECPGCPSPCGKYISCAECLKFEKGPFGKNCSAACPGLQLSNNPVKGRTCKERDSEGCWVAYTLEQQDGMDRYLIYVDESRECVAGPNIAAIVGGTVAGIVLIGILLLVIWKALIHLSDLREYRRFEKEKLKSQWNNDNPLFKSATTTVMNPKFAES
Experimental: A 1 ml quantity of the Molt3 inoculum was warmed to 37° C. and transferred by pipette into about 25 ml of a growth culture medium including RPMI 1640 lymphocyte growth medium (Fisher Scientific of St. Louis, Miss.) mixed with 10% by volume fetal calf serum, 100 units/ml penicillin, 100 μg/ml streptomycin and 2 mM glutamine. The inoculated culture was incubated for three to four days at 37° C. under a normal atmosphere having about 5% CO2 added thereto. This culture was capable of being maintained indefinitely by siphoning away the top (non-cell containing) layer and adding 50 ml (or more) of growth culture medium at intervals of three to four days.
An aqueous buffer solution including Dulbecco's phosphate buffered saline and bovine serum albumin ("-PBS/BSA solution") was prepared for use, and included a mixture of 200 mg KH2 PO4, 1.15 g Na2 HPO4, 100 mg CaCl2, 200 mg KCl, 100 mg MgCl2.6H2 O, 8 g NaCl, with distilled water added to a final 1 liter volume at room temperature, thus, forming a "PBS" solution of pH 7.4 to which was added 0.5% by weight bovine serum albumin.
An aliquot of about 7 ml was removed from the incubated culture medium and subjected to washing with the PBS/BSA solution. The washing procedure was initiated by placing the aliquot in a centrifuge (Model GT422 from Jouan, distributed Piruscio & Assoc. of Manchester, Miss.) at 1400 rpm for 6.5 minutes to separate the cells from the growth medium. The supernatant fluid was decanted, a 5 ml portion of PBS/BSA solution was transferred by pipette into the pellet, and the mixture was again centrifuged as before. The resulting supernatant fluid was decanted and the cells from the pellet were resuspended in PBS/BSA solution at a titer of about 1×10^6 cells/ml. A 500 μl portion of the solution containing the resuspended cells was placed in a microcentrifuge (Marathon 13K/M from Fisher Scientific of St. Louis, Miss.) at 3500 rpm for six minutes, to provide a washed pellet.
[…] The cells were incubated with the peptide cocktail at 37° C. for 45 minutes.
After incubation with the peptide cocktail, several antibodies were successively mixed into the incubated solution. A 75 μl portion of anti-IgM solution (a mixture of 10 μl of goat anti-human IgM stock purchased from Jackson Immuno Research of Westgrove, Pa.; and 65 μl of PBS/BSA solution) was added to the peptide cocktail for blocking of nonspecific binding of the secondary antibody. The resulting mixture was incubated for 10 minutes on ice. About 0.1 μg of a primary antibody including mouse IgG anti-human CD11a (purified according to conventional protocols at the University of Kansas Department of Pharmacology and Toxicology from an American Type Culture hybridoma cell line having Catalogue Number HB-202) was next stirred into the mixture, which was then incubated for 30 minutes at room temperature. The incubated mixture was placed in a microcentrifuge at 3500 rpm for six minutes to remove the cells from the mixture, and the cell pellet was washed two times by adding 500 μl aliquots of PBS/BSA solution and microfuging to remove non-bound antibodies from the cells as before. The resulting washed pellet was resuspended in 100 μl of a secondary antibody cocktail including 5 μl of fluorescein isothiocyanate ("FITC") labeled goat anti-mouse IgG (from CALTAG of South San Francisco, Calif.) and 95 μl of PBS/BSA solution. The resulting solution was incubated for 30 minutes at room temperature in the dark.
The incubated solution including the secondary antibody cocktail was microfuged at 3500 rpm for six minutes to remove the cells from the solution, and the cell pellet was washed two times with 500 μl portions of PBS/BSA solution, as before, to remove unbound antibodies. […]

Molt3 cells [1] = assay: Cell metabolic assay (MTT); type: cell-based
Experimental: After taking the photographs in Example 3 (and in some instances no photographs were taken), cell metabolic activity was assessed by an MTT assay. A 37.5 μl portion of MTT dye (purchased from SIGMA of St. Louis, Mo.), i.e., 3-[4,5-dimethyl thiazole-2yl]-2, 5- diphenyl tetrazolium bromide; thiazolyl blue) was added to each well, and incubated with the cells at 37° C. for about six hours. After incubation, a 250 μl quantity of a MTT solubilization solution (of a type that may be purchased from either Fischer Scientific of St. Louis, Mo. or BCD Labs of Lawrence, Kans.) was added to each well, and incubated with the cells at room temperature overnight. In the morning, the spectrophotometric absorption of each plate was determined at 570 nm in a microplate ELISA reader manufactured by Cambridge Technologies of Water-town, Mass., in order to assess cell viability as an indicator of potential peptide toxicity.

Molt3 cells [2] = assay: Homotypic adhesion assay (MDHC-induced clumping of T-cells); type: cell-based, human; set-up: key to Homotypic Adhesion Amount: Any sample having a score of "+++" or "++++" is considered to have a significant ability to modulate T-cell binding interaction; Any sample having a score of "+++" or "++++" is considered to have a significant ability to modulate T-cell binding interaction; conditions: 10 μM MDHC
Experimental: As before, the T-cells were Molt3 cells prepared in RPMI 1640 growth medium according to Example 2. An approximate 7 ml aliquot of the growth medium was centrifuged (Jouan Model GT422 at 1400 rpm for 6.5 minutes), and the supernatant fluid was decanted. The pellet was resuspended in the supernatant fluid at titer of about 1×10^6 cells/ml, with the excess supernatant fluid being retained for future resuspension of the peptides.
A 228 nmol quantity of the LJCRF-1 (Sequence ID No. 6) peptide described in Table 1 was diluted with the supernatant fluid to a 500 μl final volume, and filtered in microcentrifuge filter tubes (0.22 micron filter; 3500 rpm for 6 minutes). Serial dilution of the filtered peptide with supernatant fluid was conducted to yield five 125 μl peptide solutions to give respective concentrations of about 115 μM, 230 μM, 460 μM, 910 μM, and 1.82 mM. At each concentration, a 125 μl portion of the cell suspension was pipetted into each 125 μl portion of the peptide solutions to yield combined samples having a 250 μl volume. The 250 μl samples were seeded into individual wells in a 48-well tissue culture grade plate (from Costar of Cambridge, Md.) and incubated at 37° C. for 30 minutes. Each sample received 5 μl of 2,5-methyl dihydroxy cinnamate ("MDHC") for a 10 μM final concentration, and was subsequently incubated for about 10 hours at 37° C. MDHC induces intercellular clumping of human T-cells (Tibbetts, Butler, and Benedict, submitted) by activating the LFA/ICAM binding interaction between respective cells.
Pictures were taken of five random fields per sample using an Olympus photomicroscope having a 0.8 mm field at 400×magnification, and a 3.2 mm field of view at 100×magnification. The amount of clumping observed was quantified by determining the mean number of clumps per field ± a standard error.
FIGS. 5, 6, and 7 replicate photographs taken from exemplary peptide assays. FIG. 5 is a photograph of the control sample having no peptides and no MDHC added, from which essentially no clumping of cells is observed. […] Any sample having a score of "+++" or "++++" is considered to have a significant ability to modulate T-cell binding interaction. This is similar to results obtained by incubating similarly treated cells with antibody against either LFA or ICAM.
The homotypic adhesion assay assesses the actual ability of a candidate peptide to modulate the ability of T-cells to adhere with one another.

ICAM-1 = biological target: T2, ICAM-1 (Homo sapiens, UniProt P05362); assay: Conformation modulator assay: flow cytometry of FITC-labeled RB-1-88 binding to T-cells after pre-incubation with first peptide; type: cell-based; conditions: first peptide 4550 μM
T2 construct: host or cells: Molt3 human T-cell leukemia line
T2 sequence (P05362 28-532): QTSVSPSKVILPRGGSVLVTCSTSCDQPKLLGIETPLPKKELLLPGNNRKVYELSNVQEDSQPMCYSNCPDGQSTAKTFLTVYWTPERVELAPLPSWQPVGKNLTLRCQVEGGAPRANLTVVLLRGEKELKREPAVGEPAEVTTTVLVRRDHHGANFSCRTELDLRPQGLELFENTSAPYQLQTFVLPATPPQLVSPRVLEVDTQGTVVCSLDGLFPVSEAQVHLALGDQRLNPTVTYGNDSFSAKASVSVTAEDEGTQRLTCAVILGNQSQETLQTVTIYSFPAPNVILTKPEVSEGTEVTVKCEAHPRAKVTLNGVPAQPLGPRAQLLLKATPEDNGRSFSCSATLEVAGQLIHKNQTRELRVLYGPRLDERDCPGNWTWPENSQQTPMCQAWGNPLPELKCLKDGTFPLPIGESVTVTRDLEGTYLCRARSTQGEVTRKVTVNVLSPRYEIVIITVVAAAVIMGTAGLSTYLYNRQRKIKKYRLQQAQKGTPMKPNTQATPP
Experimental: The antibody binding assay of Example 2 was twice repeated at a peptide concentration of 4550 μM, each time substituting a 455 nmol quantity of synthetic peptide selected from the group consisting of ICAM-based peptide SC-3-111 (Sequence ID No. 10) and LFA-based peptide LJCRF-4 (Sequence ID No. 16) in respective assays. Following incubation for 30 minutes at 37° C. after introduction of the first peptides, both incubated culture were supplemented by an additional quantity of FITC-labeled RB-1-88 (Sequence ID No. 19) peptide in a quantity sufficient to provide a 1.90 μM concentration in the cell/PBS solution.
Following addition of the RB-1-88 (Sequence ID No. 19) peptide, the mixture was incubated for 30 minutes at 4° C., washed three times with 500 μl PBS/BSA, resuspended in 500 μl PBS/BSA and immediately subjected to a flow cytometer analysis as before. Table 3 presents the results of this analysis, which are also depicted in FIGS. 8 (SC-3-111) and 9 (LJCRF-4).

ICAM-1 (CD54) = biological target: T3, ICAM-1 (CD54) (Homo sapiens, UniProt P05362); assay: Antibody binding assay (FACS): anti-ICAM-1 mAb (mouse IgG anti-human CD54) binding to Molt3 T-cells after peptide incubation; type: cell-based; conditions: for Fluorescence, % change from control of the medium fluorescence intensity: mAb CD54
T3 construct: host or cells: Molt3 human T-cell leukemia line
T3 sequence (P05362 28-532): as above

[3] = peptide 4550 μM, negative = blocking
[4] = peptide 4550 μM, average ± standard error of runs

Substance | MTT % Viability (Molt3 cells [1]; peptide 460 μM) | MTT % Viability (Molt3 cells [1]; peptide 910 μM) | MTT % Viability (Molt3 cells [1]; peptide 1820 μM) | Homotypic Adhesion Amount (Molt3 cells [2]; peptide 460 μM) | Homotypic Adhesion Effect (Molt3 cells [2]; peptide 460 μM) | Homotypic Adhesion Effect (Molt3 cells [2]; peptide 910 μM) | Homotypic Adhesion Amount (Molt3 cells [2]; peptide 1820 μM) | Homotypic Adhesion Effect (Molt3 cells [2]; peptide 1820 μM) | MTT % Viability (Molt3 cells [1]; peptide 115 μM) | MTT % Viability (Molt3 cells [1]; peptide 230 μM) | Homotypic Adhesion Effect (Molt3 cells [2]; peptide 115 μM) | Homotypic Adhesion Effect (Molt3 cells [2]; peptide 230 μM) | Homotypic Adhesion Amount (Molt3 cells [2]; peptide 910 μM) | other results
LJCRF-1: ICAM-1 based short-chain peptide, Sequence ID No. 6 (QTSVSPSKVILPRGGSVLVTG) | 93% | 92% | 66% | +++ | Block | Block | +++ | Block |  |  |  |  |  | Fluorescence, % change from control of the medium fluorescence intensity (LFA-1 (CD11a); peptide 2275 μM): -12 ± 2%; Fluorescence, % change from control of the medium fluorescence intensity (LFA-1 (CD11a); [3]): -29 ± 3%; blocking efficiency (LFA-1 (CD11a); single above-average run (FIGS. 2, 3), peptide 4550 μM, anti-CD11a): 65%
LJCRF-3: ICAM-1 derived short-chain peptide, Sequence ID No. 12 (KELLLPGNNRKVYELSNVQEDSQP) |  |  |  |  |  |  |  |  |  |  |  |  |  | Fluorescence, % change from control of the medium fluorescence intensity (LFA-1 (CD11a); [3]): -13 ± 19%; MTT % Viability (Molt3 cells [1]): 38%
LJCRF-4: LFA-1β based modulator peptide, Sequence ID No. 16 (DLSYSLDDLRNVKKLGGDLLRALNE) | 94% | 60% | 11% | ++++ | Block; also recorded: blockers of intercellular adhesion | Block | +++ | Block | 99% | 101% | Enhance | Enhance; also recorded: binding enhancers | ++++ | FACS Analysis (RB-1-88 binding) (ICAM-1; then FITC-labeled RB-1-88 1.90 μM, shift vs control): +145%; effect on binding of labeled peptide (RB-1-88 / LJCRF-6) to T-cell ICAM-1 (ICAM-1; FIGS. 8, 9): synergistically increases binding; also recorded: significant T-cell binding enhancement; also recorded: significantly enhanced; effect on anti-ICAM-1 mAb binding (ICAM-1 (CD54); FIG. 4, peptide 4550 μM): promote the specific antibody binding; Fluorescence, % change from control of the medium fluorescence intensity (ICAM-1 (CD54); peptide 2275 μM, average ± standard error of runs): +3 ± 1%; Fluorescence, % change from control of the medium fluorescence intensity (ICAM-1 (CD54); peptide 6825 μM, 1 run): +521%; median peak curve shift (enhancement) (ICAM-1 (CD54); single run of FIG. 4, peptide 4550 μM, anti-ICAM antibody): +447%; Homotypic Adhesion Amount (Molt3 cells [2]; peptide 115 μM): +++; Homotypic Adhesion Amount (Molt3 cells [2]; peptide 230 μM): +++
LJCRF-5: LFA-1α derived short-chain peptide, Sequence ID No. 17 (GVDVDQDGETELIGAPLFYGEQRG) | 81% | 52% | 20% |  | Block | Block | ++++ | Block | 95% | 84% | Block | Block | ++++ | Fluorescence, % change from control of the medium fluorescence intensity (ICAM-1 (CD54); [4]): -17%; metabolic activity by MTT (Molt3 cells [1]; peptide 1820 μM): decrease in metabolic activity
LJCRF-6: LFA-1α (insert) based short-chain peptide, Sequence ID No. 18 (ITDGEATDSGNIDAAKDIIYIIGI) |  |  |  |  |  | almost total inhibition | +++ | Block |  |  |  |  |  | Fluorescence, % change from control of the medium fluorescence intensity (ICAM-1 (CD54); [4]): -4%
MC-1-80: ICAM-1 derived short-chain peptide, Sequence ID No. 9 (LPRGGSVLVTG) |  |  |  |  |  |  |  |  |  |  |  |  |  | metabolic activity / cellular respiration by MTT (Molt3 cells [1]; peptide 910 μM): enhanced
SC-3-223: LFA-1β derived peptide, identical to LJCRF-4 (Sequence ID No. 16), tested separately (DLSYSLDDLRNVKKLGGDLLRALNE) | 112% | 108% | 75% | +++ | Block | Block | ++++ | Block | 103% | 109% | Block | Block | ++++ | Homotypic Adhesion Amount (Molt3 cells [2]; peptide 230 μM): +++
